In PubChem BioAssay (NCI):
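96-well plates; 48 h exposure; 5 concentrations. Endpoints by linear interpolation between flanking doses. Not reached: highest tested concentration assigned. TGI denotes the concentration required for complete inhibition of growth.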

Tests used:
Assay in all cases: inhibition of tumour cell growth, NCI panel, 48 h
[1] = system: CCRF-CEM leukemia
[2] = system: UACC-62 melanoma
[3] = system: NCI-H23 lung
[4] = system: NCI-H460 lung
[5] = system: MOLT-4 leukemia
[6] = system: UACC-257 melanoma
[7] = system: OVCAR-4 ovarian
[8] = system: HOP-92 NSCLC
[9] = system: MALME-3M melanoma
[10] = system: SNB-19 CNS
[11] = system: KM12 colon
[12] = system: IGROV1 ovarian
[13] = system: SR leukemia
[14] = system: RXF 393 renal
[15] = system: 786-0 renal
[16] = system: HCT-15 colon
[17] = system: OVCAR-3 ovarian
[18] = system: MDA-MB-435
[19] = system: HCT-116 colon
[20] = system: EKVX NSCLC
[21] = system: SF-539 CNS
[22] = system: SF-295 CNS
[23] = system: NCI/ADR-RES ovarian
[24] = system: K-562 leukemia
[25] = system: SK-MEL-2 melanoma
[26] = system: OVCAR-8 ovarian
[27] = system: SN12C renal
[28] = system: HL-60(TB) leukemia
[29] = system: NCI-H522 lung
[30] = system: NCI-H226 lung
[31] = system: U251 CNS
[32] = system: HT29 colon
[33] = system: OVCAR-5 ovarian
[34] = system: HCC-2998 colon
[35] = system: SF-268 CNS
[36] = system: BT-549 breast
[37] = system: ACHN renal
[38] = system: A549 NSCLC
[39] = system: DU-145 prostate
[40] = system: HS 578T breast
[41] = system: MDA-N
[42] = system: SNB-75 CNS
[43] = system: M14 melanoma
[44] = system: UO-31 renal
[45] = system: SK-MEL-5 melanoma
[46] = system: HOP-62 NSCLC
[47] = system: SK-MEL-28 melanoma
[48] = system: SW-620 colon
[49] = system: CAKI-1 renal
[50] = system: MCF7 breast
[51] = system: SK-OV-3 ovarian
[52] = system: MDA-MB-231 breast
[53] = system: T-47D breast
[54] = system: PC-3 prostate
[55] = system: RPMI-8226 leukemia
[56] = system: A498 renal
[57] = system: COLO 205 colon
[58] = system: TK-10 renal
[59] = system: LOX IMVI melanoma

## CCOC(=O)c1cc(-c2ccc(OC)cc2)c([N+](=O)[O-])n1C
[1]
  TGI: > 10 µM
[2]
  TGI: > 10 µM
[3]
  TGI: > 10 µM
[4]
  TGI: > 10 µM
[5]
  TGI: > 10 µM
[6]
  TGI: > 10 µM
[7]
  TGI: > 10 µM
[8]
  TGI: > 10 µM
[9]
  TGI: > 10 µM
[10]
  TGI: > 10 µM
[11]
  TGI: > 10 µM
[12]
  TGI: > 10 µM
[13]
  TGI: > 10 µM
[14]
  TGI: 4.81 µM
[15]
  TGI: > 10 µM
[16]
  TGI: > 10 µM
[17]
  TGI: > 10 µM
[18]
  TGI: > 10 µM
[19]
  TGI: > 10 µM
[20]
  TGI: > 10 µM
[21]
  TGI: > 10 µM
[22]
  TGI: > 10 µM
[23]
  TGI: > 10 µM
[24]
  TGI: > 10 µM
[25]
  TGI: > 10 µM
[26]
  TGI: > 10 µM
[27]
  TGI: > 10 µM
[28]
  TGI: > 10 µM
[29]
  TGI: > 10 µM
[30]
  TGI: > 10 µM
[31]
  TGI: > 10 µM
[32]
  TGI: > 10 µM
[33]
  TGI: > 10 µM
[34]
  TGI: > 10 µM
[35]
  TGI: > 10 µM
[36]
  TGI: > 10 µM
[37]
  TGI: > 10 µM
[38]
  TGI: > 10 µM
[39]
  TGI: > 10 µM
[40]
  TGI: > 10 µM
[41]
  TGI: > 10 µM
[42]
  TGI: > 10 µM
[43]
  TGI: > 10 µM
[44]
  TGI: > 10 µM

## COc1ccccc1CC(=O)C(O)(C(F)(F)F)C(F)(F)F
[1]
  TGI: > 100 µM
[2]
  TGI: > 100 µM
[3]
  TGI: > 100 µM
[4]
  TGI: > 100 µM
[5]
  TGI: > 100 µM
[6]
  TGI: > 100 µM
[45]
  TGI: > 100 µM
[46]
  TGI: > 100 µM
[7]
  TGI: > 100 µM
[8]
  TGI: > 100 µM
[9]
  TGI: > 100 µM
[10]
  TGI: > 100 µM
[11]
  TGI: > 100 µM
[12]
  TGI: > 100 µM
[13]
  TGI: > 100 µM
[14]
  TGI: > 100 µM
[15]
  TGI: > 100 µM
[47]
  TGI: > 100 µM
[16]
  TGI: > 100 µM
[17]
  TGI: > 100 µM
[48]
  TGI: > 100 µM
[18]
  TGI: > 100 µM
[19]
  TGI: > 100 µM
[20]
  TGI: > 100 µM
[21]
  TGI: > 100 µM
[22]
  TGI: > 100 µM
[23]
  TGI: > 100 µM
[24]
  TGI: > 100 µM
[49]
  TGI: > 100 µM
[50]
  TGI: > 100 µM
[51]
  TGI: > 100 µM
[25]
  TGI: > 100 µM
[26]
  TGI: > 100 µM
[27]
  TGI: > 100 µM
[28]
  TGI: > 100 µM
[29]
  TGI: > 100 µM
[52]
  TGI: > 100 µM
[53]
  TGI: > 100 µM
[54]
  TGI: > 100 µM
[30]
  TGI: > 100 µM
[31]
  TGI: > 100 µM
[32]
  TGI: > 100 µM
[55]
  TGI: > 100 µM
[33]
  TGI: > 100 µM
[34]
  TGI: > 100 µM
[56]
  TGI: > 100 µM
[35]
  TGI: > 100 µM
[37]
  TGI: > 100 µM
[38]
  TGI: > 100 µM
[39]
  TGI: > 100 µM
[57]
  TGI: > 100 µM
[40]
  TGI: > 100 µM
[58]
  TGI: > 100 µM
[41]
  TGI: > 100 µM
[42]
  TGI: > 100 µM
[43]
  TGI: > 100 µM
[44]
  TGI: > 100 µM
[59]
  TGI: > 100 µM

## Cc1cc(OC(=O)Nc2cccc3ccccc23)c(C(C)C)cc1C(=S)Nc1ccccc1
[1]
  TGI: 27.5 µM
[2]
  TGI: 26.5 µM
[3]
  TGI: 34.3 µM
[4]
  TGI: 47.1 µM
[5]
  TGI: 52.4 µM
[6]
  TGI: 50.5 µM
[45]
  TGI: 27.9 µM
[46]
  TGI: 34.9 µM
[7]
  TGI: 35 µM
[9]
  TGI: 36.8 µM
[10]
  TGI: 71.3 µM
[11]
  TGI: 36.4 µM
[12]
  TGI: 30.4 µM
[13]
  TGI: 33.5 µM
[15]
  TGI: 56.6 µM
[47]
  TGI: 35.3 µM
[16]
  TGI: 29.2 µM
[17]
  TGI: 33.5 µM
[48]
  TGI: 43.3 µM
[18]
  TGI: 33.5 µM
[19]
  TGI: 32.4 µM
[20]
  TGI: 61.6 µM
[21]
  TGI: 36.9 µM
[22]
  TGI: 36.8 µM
[23]
  TGI: 52.1 µM
[24]
  TGI: 43.2 µM
[49]
  TGI: 54.7 µM
[50]
  TGI: 34.7 µM
[51]
  TGI: 51.7 µM
[25]
  TGI: 28.3 µM
[26]
  TGI: 28.8 µM
[28]
  TGI: 15.1 µM
[29]
  TGI: 29.1 µM
[53]
  TGI: 53.6 µM
[54]
  TGI: 42.2 µM
[31]
  TGI: 35.4 µM
[32]
  TGI: 35.8 µM
[55]
  TGI: 75.8 µM
[33]
  TGI: 46 µM
[34]
  TGI: 38.8 µM
[35]
  TGI: 77.6 µM
[36]
  TGI: 32.1 µM
[37]
  TGI: 73.5 µM
[38]
  TGI: > 100 µM
[39]
  TGI: 82 µM
[57]
  TGI: 39.4 µM
[40]
  TGI: 55.2 µM
[41]
  TGI: 33.3 µM
[43]
  TGI: 37 µM
[44]
  TGI: 40.2 µM
[59]
  TGI: 28.7 µM

## COC(=O)c1ccc(Cc2cc(Cc3ccc(C(=O)OC)cc3)cc(Cc3ccc(C(=O)OC)cc3)c2)cc1
[2]
  TGI: > 25 µM
[4]
  TGI: > 25 µM
[5]
  TGI: > 25 µM
[6]
  TGI: > 25 µM
[46]
  TGI: > 25 µM
[7]
  TGI: > 25 µM
[8]
  TGI: > 25 µM
[9]
  TGI: > 25 µM
[10]
  TGI: > 25 µM
[11]
  TGI: > 25 µM
[12]
  TGI: > 25 µM
[13]
  TGI: > 25 µM
[15]
  TGI: > 25 µM
[47]
  TGI: > 25 µM
[16]
  TGI: > 25 µM
[17]
  TGI: > 25 µM
[48]
  TGI: > 25 µM
[18]
  TGI: > 25 µM
[19]
  TGI: > 25 µM
[20]
  TGI: > 25 µM
[21]
  TGI: > 25 µM
[22]
  TGI: > 25 µM
[23]
  TGI: > 25 µM
[24]
  TGI: > 25 µM
[50]
  TGI: > 25 µM
[51]
  TGI: > 25 µM
[25]
  TGI: > 25 µM
[26]
  TGI: > 25 µM
[27]
  TGI: > 25 µM
[28]
  TGI: > 25 µM
[29]
  TGI: > 25 µM
[52]
  TGI: > 25 µM
[54]
  TGI: > 25 µM
[30]
  TGI: > 25 µM
[31]
  TGI: > 25 µM
[32]
  TGI: > 25 µM
[55]
  TGI: > 25 µM
[33]
  TGI: > 25 µM
[34]
  TGI: > 25 µM
[56]
  TGI: > 25 µM
[35]
  TGI: > 25 µM
[36]
  TGI: > 25 µM
[37]
  TGI: > 25 µM
[38]
  TGI: > 25 µM
[39]
  TGI: > 25 µM
[40]
  TGI: > 25 µM
[58]
  TGI: > 25 µM
[41]
  TGI: > 25 µM
[42]
  TGI: > 25 µM
[43]
  TGI: > 25 µM
[44]
  TGI: > 25 µM
[59]
  TGI: > 25 µM
